Results on 25 molecules are retold here after US7902181B2, “Compounds 010” (AstraZeneca AB, priority 2007, dated 2011).

Where a name gives a salt, the structure may show the parent alone.

The target of this test is Recombinant Human (rh) DPP1 (Homo sapiens, UniProt P53634). Nature of the test: Fluorescence Assay for Recombinant Human (rh) DPP1. The class given is biochemical. The conditions noted are these: rhDPP1; substrate H-Gly-Arg-AMC; pH5.0; 30 min pre-incubation, 60 min reaction at 22° C.; highest concentration 10 μM; read-out: DPP1 activity, pIC50 (converted). On the procedure:
Fluorescence Assay for Recombinant Human (rh) DPP1
The activity of DPP1 was determined by measuring the enzymatic release of aminomethyl coumarin (AMC) from the peptide substrate (H-Gly-Arg-AMC), which leads to an increase in fluorescence intensity at λex=350 nm and λem=450 nm. The assay was carried out in black 384 well plates in a final volume of 50 μl at 22° C. The assay conditions contained the following: 25 mM piperazine buffer pH5.0; 50 mM NaCl, 5 mM DTT; 0.01% (v/v) Triton X-100; 100 μM H-Gly-Arg-AMC and rhDPP1 ([…]). Potential inhibitors were made up in DMSO and then diluted in the assay to give a final concentration of 1% (v/v) DMSO. A 12-point half-log dilution of the inhibitors (highest concentration 10 μM) was tested and the pIC50 determined using a 4-parameter logistic equation in a non-linear curve fitting routine. A standard DPP1 inhibitor (vinyl sulfone, see below) was used as a positive control in the assay. Routinely, inhibitors were pre-incubated with rhDPP1 for 30 min prior to the addition of the peptide substrate to start the reaction for a further 60 min at 22° C. After that the plates were immediately read in a fluorescence plate reader using the above emission and excitation wavelengths [modified from Kam, C M, Gotz, M G, Koot, G, McGuire, M J, Thiele, D L, Hudig, D & Powers, J C (2004). Arch Biochem Biophys, 427, 123-134 & McGuire, M J, Lipsky, P E & Thiele, D L (1992). Arch Biochem Biophys, 295, 280-288].

Chain of Recombinant Human (rh) DPP1 (P53634 25-463): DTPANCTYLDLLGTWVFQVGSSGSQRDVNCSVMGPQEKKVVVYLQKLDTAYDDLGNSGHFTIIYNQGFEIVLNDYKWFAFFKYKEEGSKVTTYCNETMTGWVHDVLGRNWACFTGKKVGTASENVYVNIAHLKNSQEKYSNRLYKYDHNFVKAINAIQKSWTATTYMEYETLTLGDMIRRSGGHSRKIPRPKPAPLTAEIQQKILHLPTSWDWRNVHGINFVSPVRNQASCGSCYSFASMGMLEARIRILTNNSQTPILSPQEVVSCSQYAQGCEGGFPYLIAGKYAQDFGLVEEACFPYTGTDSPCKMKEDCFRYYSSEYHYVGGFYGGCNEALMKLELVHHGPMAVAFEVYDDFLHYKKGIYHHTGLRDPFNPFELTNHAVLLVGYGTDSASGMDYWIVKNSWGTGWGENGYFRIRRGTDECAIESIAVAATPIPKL

For `CN(C)C(=O)c1cc(Cl)cc(-c2ccc(CC(C#N)NC(=O)[C@@H]3CCCCN3)cn2)c1` (mixture of isomers) [Example 81, (S)-N-((S)-2-(6-(3-Chloro-5-(dimethylcarbamoyl)phenyl)pyridin-3-yl)-1-cyanoethyl)piperidine-2-carboxamide Trifluoroacetate], the IC50 is 794 nM.
The value for `N#CC(Cc1ccc(-c2ccc(S(=O)(=O)N3CCOCC3)cc2)cc1)NC(=O)[C@@H]1CCCCN1` (mixture of isomers) [Example 94, (S)-N-((S)-1-Cyano-2-(4′-(morpholinosulfonyl)biphenyl-4-yl)ethyl)piperidine-2-carboxamide Trifluoroacetate] was 15.8 nM.
The value for `N#C[C@H](Cc1ccc(-c2cccc(Cl)c2)cc1)NC(=O)[C@@H]1CCCCN1` [Example 1, (S)-N-((S)-2-(3′-Chlorobiphenyl-4-yl)-1-cyanoethyl)piperidine-2-carboxamide Trifluoroacetate] was 63.1 nM.
Take `N#C[C@H](Cc1ccc(-c2cccc(CN3CCCCC3)c2)cc1)NC(=O)[C@@H]1CCCCN1` [Example 2, (S)-N-((S)-1-Cyano-2-(3′-(piperidin-1-ylmethyl)biphenyl-4-yl)ethyl)piperidine-2-carboxamide di-trifluoroacetate]: the IC50 was 79.4 nM.
The result for `N#C[C@H](Cc1ccc(-c2ccccc2)cc1)NC(=O)[C@@H]1CCCN1` [Example 3, (S)-N-((S)-2-(Biphenyl-4-yl)-1-cyanoethyl)pyrrolidine-2-carboxamide] reads 316 nM.
Consider `N#C[C@H](Cc1ccc(-c2cnn(Cc3ccccc3)c2)cc1)NC(=O)[C@@H]1CCCCN1` [Example 4, (S)-N-((S)-2-(4-(1-Benzyl-1H-pyrazol-4-yl)phenyl)-1-cyanoethyl)-piperidine-2-carboxamide Trifluoroacetate], for which the IC50 is 31.6 nM.
For the molecule `N#C[C@H](Cc1ccc(-c2ccc(C(N)=O)cc2)cc1)NC(=O)[C@@H]1CCCCN1` [Example 5, (S)-N-((S)-2-(4′-Carbamoylbiphenyl-4-yl)-1-cyanoethyl)piperidine-2-carboxamide Trifluoroacetate], the IC50 is 63.1 nM.
For the molecule `N#Cc1cccc(-c2ccc(C[C@@H](C#N)NC(=O)[C@@H]3CCCCN3)cc2)c1` [Example 6, (S)-N-((S)-1-Cyano-2-(3′-cyanobiphenyl-4-yl)ethyl)piperidine-2-carboxamide Trifluoroacetate], the IC50 is 63.1 nM.
The result for `N#C[C@H](Cc1ccc(-c2cccc(CN)c2)cc1)NC(=O)[C@@H]1CCCCN1` [Example 7, (S)-N-((S)-2-(3′-(Aminomethyl)biphenyl-4-yl)-1-cyanoethyl)piperidine-2-carboxamide Ditrifluoroacetate] reads 100 nM; that for `CC(=O)Nc1cccc(-c2ccc(C[C@@H](C#N)NC(=O)[C@@H]3CCCCN3)cc2)c1` [Example 8, (S)-N-((S)-2-(3′-Acetamidobiphenyl-4-yl)-1-cyanoethyl)piperidine-2-carboxamide Trifluoroacetate], 126 nM.
The result for `N#C[C@H](Cc1ccc(-c2ccc(CN3CCOCC3)cc2)cc1)NC(=O)[C@@H]1CCCCN1` [Example 9, (S)-N-((S)-1-Cyano-2-(4′-(morpholinomethyl)biphenyl-4-yl)ethyl)piperidine-2-carboxamide Trifluoroacetate] reads 158 nM; that for `N#C[C@H](Cc1ccc(-c2cccnc2)cc1)NC(=O)[C@@H]1CCCCN1` [Example 10, (S)-N-((S)-1-Cyano-2-(4-(pyridin-3-yl)phenyl)ethyl)piperidine-2-carboxamide Trifluoroacetate], 251 nM; that for `Cc1cc(O)ccc1-c1ccc(C[C@@H](C#N)NC(=O)[C@@H]2CCCCN2)cc1` [Example 11, (S)-N-((S)-1-Cyano-2-(4′-hydroxy-2′-methylbiphenyl-4-yl)ethyl)piperidine-2-carboxamide Trifluoroacetate], 316 nM.
As for `N#C[C@H](Cc1ccc(-c2cccc(C(=O)O)c2)cc1)NC(=O)[C@@H]1CCCCN1` [Example 12, 4′-((S)-2-Cyano-2-((S)-piperidine-2-carboxamido)ethyl)biphenyl-3-carboxylic Acid Trifluoroacetate], the IC50 was 398 nM.
The value for `N#C[C@H](Cc1ccc(-c2ccccc2O[C@@H]2CCNC2)cc1)NC(=O)[C@@H]1CCCCN1` [Example 13, (S)-N-((S)-1-Cyano-2-(2′-((R)-pyrrolidin-3-yloxy)biphenyl-4-yl)ethyl)piperidine-2-carboxamide Ditrifluoroacetate] was 794 nM; that for `N#C[C@H](Cc1ccc(-c2cc3ccccc3[nH]2)cc1)NC(=O)[C@@H]1CCCCN1` [Example 14, (S)-N-((S)-2-(4-(1H-Indol-2-yl)phenyl)-1-cyanoethyl)piperidine-2-carboxamide Trifluoroacetate] was 7.94 nM.
For `COc1cccc(-c2ccc(C[C@@H](C#N)NC(=O)[C@@H]3CCCCN3)cc2)c1` [Example 15, (2S)-N-[(1S)-1-Cyano-2-(3′-methoxybiphenyl-4-yl)ethyl]piperidine-2-carboxamide Trifluoroacetate], the IC50 is 100 nM.
In the case of `N#C[C@H](Cc1ccc(-c2ccccc2)cc1)NC(=O)[C@@H]1CCCCN1` [Example 16, Piperidine-2-carboxylic acid (2-biphenyl-4-yl-1-cyano-ethyl)-amide], the IC50 is 126 nM.
On to `N#C[C@H](Cc1ccc(-c2ccccc2)cc1)NC(=O)[C@@H]1C[C@@H](O)CN1` [Example 17, (2S,4R)-N-((S)-2-(Biphenyl-4-yl)-1-cyanoethyl)-4-hydroxypyrrolidine-2-carboxamide], for which the IC50 is 200 nM.
In the case of `N#Cc1cccc(-c2ccc(C[C@@H](C#N)NC(=O)[C@@H]3CCN3)cc2)c1` [Example 19, (S)-N-((S)-1-Cyano-2-(3′-cyanobiphenyl-4-yl)ethyl)azetidine-2-carboxamide], the IC50 was 200 nM.
Consider `CN(C)S(=O)(=O)c1ccc(-c2ccc(C[C@@H](C#N)NC(=O)[C@@H]3CCCCN3)cc2)cc1` [Example 20, (2S)-N-[(1S)-1-Cyano-2-[4-[4-(dimethylsulfamoyl)phenyl]phenyl]ethyl]piperidine-2-carboxamide trifluoroacetate], for which the IC50 is 25.1 nM.
The result for `N#C[C@H](Cc1ccc(-c2cnoc2)cc1)NC(=O)[C@@H]1CCCCN1` [Example 21, (2S)-N-[(1S)-1-Cyano-2-(4-1,2-oxazol-4-ylphenyl)ethyl]piperidine-2-carboxamide trifluoroacetate] reads 50.1 nM; that for `CSc1cccc(-c2ccc(C[C@@H](C#N)NC(=O)[C@@H]3CCCCN3)cc2)c1` [Example 22, (2S)-N-[(1S)-1-Cyano-2-[4-(3-methylsulfanylphenyl)phe-nyl]ethyl]piperidine-2-carboxamide trifluoroacetate], 63.1 nM; that for `N#C[C@H](Cc1ccc(-c2ccc(O)cc2)cc1)NC(=O)[C@@H]1CCCCN1` [Example 23, (2S)-N-[(1S)-1-Cyano-2-[4-(4-hydroxyphenyl)phenyl]ethyl]piperidine-2-carboxamide trifluoroacetate], 63.1 nM.
`N#Cc1ccc(-c2ccc(C[C@@H](C#N)NC(=O)[C@@H]3CCCCN3)cc2)cc1` [Example 24, (2S)-N-[(1S)-1-Cyano-2-[4-(4-cyanophenyl)phenyl]ethyl]piperidine-2-carboxamide trifluoroacetate]: the IC50 was 15.8 nM.
